From patent publication US10752609B2, “GSK-3 inhibitors” (priority 2016, dated 2020)
Read-outs that look alike come from different tables or passages of the source.

How the values were obtained:
GSK3α = GSK3α (Homo sapiens, UniProt P49840); assay: GSK3α kinase assay (Caliper LabChip3000 mobility shift, fluoresceinated peptide substrate)
Description: The kinase assay was performed in V-bottom 384-well plates. […] The reaction was incubated at room temperature for 20 hours and terminated by adding 45 μl of 35 mM EDTA to each sample. The reaction mixture was analyzed on the Caliper LabChip3000 (Caliper, Hopkinton, Mass.) by electrophoretic separation of the unphosphorylated substrate and phosphorylated product. […] Compounds were dissolved at 10 mM in dimethylsulfoxide (DMSO) and evaluated at eleven concentrations. IC50 values were derived by non-linear regression analysis.

pTau = pTau assay (no method described); type: cell-based
GSK3β = GSK3β (Homo sapiens, UniProt P49841); assay: GSK3β kinase assay (Caliper LabChip3000 mobility shift, fluoresceinated peptide substrate); type: biochemical
Sequence of GSK3β (P49841 whole entry, species assumed): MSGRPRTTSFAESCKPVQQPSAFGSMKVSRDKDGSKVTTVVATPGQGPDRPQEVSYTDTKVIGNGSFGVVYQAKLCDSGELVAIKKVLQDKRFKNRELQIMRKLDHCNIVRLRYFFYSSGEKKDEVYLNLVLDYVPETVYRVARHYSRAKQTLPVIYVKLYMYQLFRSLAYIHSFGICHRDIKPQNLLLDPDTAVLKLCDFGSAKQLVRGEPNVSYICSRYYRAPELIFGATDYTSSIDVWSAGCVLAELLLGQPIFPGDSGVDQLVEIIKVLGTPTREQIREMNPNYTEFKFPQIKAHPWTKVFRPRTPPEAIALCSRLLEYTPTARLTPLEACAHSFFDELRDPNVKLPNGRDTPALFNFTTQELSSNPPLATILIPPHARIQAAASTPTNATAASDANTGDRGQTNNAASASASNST

[1] = 250 pM enzyme, 20 uM ATP, 1.5 uM peptide, 20 hours room temperature, first value of cell GSK3β/GSK3α, read-out: GSK3β (nM), IC50

Sequence of GSK3α (P49840 whole entry, species assumed): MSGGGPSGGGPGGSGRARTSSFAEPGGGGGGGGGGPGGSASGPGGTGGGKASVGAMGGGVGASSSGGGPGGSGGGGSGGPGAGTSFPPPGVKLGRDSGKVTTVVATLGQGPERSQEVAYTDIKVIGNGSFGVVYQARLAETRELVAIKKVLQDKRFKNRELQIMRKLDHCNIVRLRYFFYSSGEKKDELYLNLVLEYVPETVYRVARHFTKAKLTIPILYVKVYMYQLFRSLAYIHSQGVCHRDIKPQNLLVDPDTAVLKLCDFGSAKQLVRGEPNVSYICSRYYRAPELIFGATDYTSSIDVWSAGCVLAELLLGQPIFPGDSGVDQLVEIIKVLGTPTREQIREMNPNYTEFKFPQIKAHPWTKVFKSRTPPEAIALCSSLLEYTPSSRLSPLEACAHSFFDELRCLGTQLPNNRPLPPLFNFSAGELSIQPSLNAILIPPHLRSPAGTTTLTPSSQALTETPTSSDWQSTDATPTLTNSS

With `CC(Nc1nccc(C(=O)Nc2cnccc2-c2ccc(F)cc2)n1)C(C)(C)C` (stereo not drawn) [Example 157, 2-((3,3-Dimethylbutan-2-yl)amino)-N-(4-(4-fluorophenyl)pyridin-3-yl)pyrimidine-4-carboxamide] the IC50 (GSK3α) was 0.72 nM, the IC50 (pTau) was 410 nM and the IC50 (GSK3β; [1]) was 2.2 nM.
Compound `CNc1nccc(C(=O)Nc2cnccc2-c2ccc(F)cc2F)n1` [Example 158, N-(4-(2,4-Difluorophenyl)pyridin-3-yl)-2-(methylamino)pyrimidine-4-carboxamide] has an IC50 (GSK3α) of 1.9 nM, an IC50 (pTau) of 96 nM and an IC50 (GSK3β; [1]) of 2.4 nM.
`O=C(Nc1cnccc1-c1ccccc1)c1ccnc(Nc2cnn(-c3cc(F)ccc3F)c2)n1` [Example 159, 2-((1-(2,5-Difluorophenyl)-1H-pyrazol-4-yl)amino)-N-(4-phenylpyridin-3-yl)pyrimidine-4-carboxamide] showed an IC50 (GSK3α) of 1.9 nM, an IC50 (pTau) of 390 nM and an IC50 (GSK3β; [1]) of 7.2 nM.
`CN1CCC(Nc2nccc(C(=O)Nc3cnccc3-c3ccccc3F)n2)CC1` [Example 162, N-(4-(2-Fluorophenyl)pyridin-3-yl)-2-((1-methylpiperidin-4-yl)amino)pyrimidine-4-carboxamide] showed an IC50 (GSK3α) of 39 nM, an IC50 (pTau) of 2200 nM and an IC50 (GSK3β; [1]) of 32 nM.
Compound `O=C(Nc1cnccc1-c1ccccc1)c1ccnc(Nc2ccccn2)n1` [Example 163, N-(4-Phenylpyridin-3-yl)-2-(pyridin-2-ylamino)pyrimidine-4-carboxamide] has an IC50 (GSK3α) of 210 nM, an IC50 (pTau) of 10000 nM and an IC50 (GSK3β; [1]) of 310 nM.
Compound `O=C(Nc1cnccc1-c1ccc(F)cc1F)c1ccnc(Nc2cccnn2)n1` [Example 164, N-(4-(2,4-Difluorophenyl)pyridin-3-yl)-2-(pyridazin-3-ylamino)pyrimidine-4-carboxamide] has an IC50 (GSK3α) of 780 nM, an IC50 (pTau) of 10000 nM and an IC50 (GSK3β; [1]) of 1500 nM.
`CN1CCC(Nc2nccc(C(=O)Nc3cnccc3-c3ccccc3)n2)CC1` [Example 165, 2-((1-Methylpiperidin-4-yl)amino)-N-(4-phenylpyridin-3-yl)pyrimidine-4-carboxamide] was tested, and the IC50 (GSK3α) was 110 nM, the IC50 (pTau) was 3300 nM and the IC50 (GSK3β; [1]) was 91 nM.
With `CCCC1(c2cc(Cl)ncc2NC(=O)c2ccnc(NC3CC3)n2)OCCO1` [Example 166, N-(6-Chloro-4-(2-propyl-1,3-dioxolan-2-yl)pyridin-3-yl)-2-(cyclopropylamino)pyrimidine-4-carboxamide] the IC50 (GSK3α) was 1.7 nM, the IC50 (pTau) was 220 nM and the IC50 (GSK3β; [1]) was 0.73 nM.
`CCCC1(c2cc(Cl)ncc2NC(=O)c2ccnc(NC3CCOCC3)n2)OCCO1` [Example 167, N-(6-Chloro-4-(2-propyl-1,3-dioxolan-2-yl)pyridin-3-yl)-2-((tetrahydro-2H-pyran-4-yl)amino)pyrimidine-4-carboxamide] gave an IC50 (GSK3α) of 0.47 nM, an IC50 (pTau) of 69 nM and an IC50 (GSK3β; [1]) of 0.43 nM.
Compound `O=C(Nc1cnc(F)cc1N1CCOCC1)c1ccnc(Nc2cccc(Cl)c2)n1` [Example 168] has an IC50 (GSK3α) of 0.2 nM, an IC50 (pTau) of 21 nM and an IC50 (GSK3β; [1]) of 0.17 nM.
`O=C(Nc1cnc(F)cc1N1CCOCC1)c1ccnc(Nc2ccc(Cl)c(F)c2)n1` [Example 169, 2-((4-Chloro-3-fluorophenyl)amino)-N-(6-fluoro-4-morpholinopyridin-3-yl)pyrimidine-4-carboxamide] was tested, and the IC50 (GSK3α) was 0.15 nM, the IC50 (pTau) was 34 nM and the IC50 (GSK3β; [1]) was 0.27 nM.
`O=C(Nc1cnc(F)cc1N1CCOCC1)c1ccnc(Nc2ccc(Cl)cc2)n1` [Example 170] showed an IC50 (GSK3α) of 0.21 nM, an IC50 (pTau) of 48 nM and an IC50 (GSK3β; [1]) of 0.34 nM.
For `O=C(Nc1cnc(F)cc1N1CCOCC1)c1ccnc(Nc2ccc(Cl)cc2F)n1` [Example 171, 2-((4-Chloro-2-fluorophenyl)amino)-N-(6-fluoro-4-morpholinopyridin-3-yl)pyrimidine-4-carboxamide], the IC50 (GSK3α) was 0.47 nM, the IC50 (pTau) was 59 nM and the IC50 (GSK3β) was 0.58 nM.
`O=C(Nc1cnc(F)cc1N1CCOCC1)c1ccnc(Nc2cccc(OC(F)(F)F)c2)n1` [Example 172, N-(6-Fluoro-4-morpholinopyridin-3-yl)-2-((3-(trifluoromethoxy)phenyl)amino)pyrimidine-4-carboxamide] showed an IC50 (GSK3α) of 0.46 nM, an IC50 (pTau) of 160 nM and an IC50 (GSK3β; [1]) of 0.89 nM.
Work on `CC(C)(C)CNc1nccc(C(=O)Nc2cnc(F)cc2N2CCOCC2)n1` [Example 173] yielded an IC50 (GSK3α) of 0.49 nM, an IC50 (pTau) of 69 nM and an IC50 (GSK3β) of 1.1 nM.
Work on `N#Cc1ccc(Nc2nccc(C(=O)Nc3cnc(F)cc3N3CCOCC3)n2)cc1` [Example 174, 2-((4-Cyanophenyl)amino)-N-(6-fluoro-4-morpholinopyridin-3-yl)pyrimidine-4-carboxamide] yielded an IC50 (GSK3α) of 1.6 nM, an IC50 (pTau) of 54 nM and an IC50 (GSK3β; [1]) of 1.1 nM.
Compound `O=C(Nc1cnc(F)cc1N1CCOCC1)c1ccnc(NC2COC2)n1` [Example 175, N-(6-Fluoro-4-morpholinopyridin-3-yl)-2-(oxetan-3-ylamino)pyrimidine-4-carboxamide] has an IC50 (GSK3α) of 27 nM, an IC50 (pTau) of 2100 nM and an IC50 (GSK3β; [1]) of 46 nM.
In the case of `N#Cc1ccc(Nc2nccc(C(=O)Nc3cnc(F)cc3N3CCC(F)(F)CC3)n2)cc1` [Example 176, 2-((4-Cyanophenyl)amino)-N-(4-(4,4-difluoropiperidin-1-yl)-6-fluoropyridin-3-yl)pyrimidine-4-carboxamide], the IC50 (GSK3α) is reported as 0.28 nM, the IC50 (pTau) is reported as 28 nM and the IC50 (GSK3β) is reported as 0.32 nM.
`O=C(Nc1cnc(F)cc1N1CCC(F)(F)CC1)c1ccnc(Nc2ccccc2)n1` [Example 177, N-(4-(4,4-Difluoropiperidin-1-yl)-6-fluoropyridin-3-yl)-2-(phenylamino)pyrimidine-4-carboxamide] gave an IC50 (GSK3α) of 0.41 nM, an IC50 (pTau) of 60 nM and an IC50 (GSK3β; [1]) of 0.47 nM.
In the case of `O=C(Nc1cnc(F)cc1N1CCC(F)(F)CC1)c1ccnc(Nc2ccc(Cl)cc2)n1` [Example 178, 2-((4-Chlorophenyl)amino)-N-(4-(4,4-difluoropiperidin-1-yl)-6-fluoropyridin-3-yl)pyrimidine-4-carboxamide], the IC50 (GSK3α) is reported as 0.57 nM, the IC50 (pTau) is reported as 69 nM and the IC50 (GSK3β; [1]) is reported as 0.67 nM.
`O=C(Nc1cnc(F)cc1N1CCC(F)(F)CC1)c1ccnc(NCC2CC2)n1` [Example 179, 2-((Cyclopropylmethyl)amino)-N-(4-(4,4-difluoropiperidin-1-yl)-6-fluoropyridin-3-yl)pyrimidine-4-carboxamide] gave an IC50 (GSK3α) of 0.61 nM, an IC50 (pTau) of 94 nM and an IC50 (GSK3β; [1]) of 0.7 nM.
In the case of `O=C(Nc1cnc(F)cc1N1CCC(F)(F)CC1)c1ccnc(Nc2ccc(F)cc2)n1` [Example 180, N-(4-(4,4-Difluoropiperidin-1-yl)-6-fluoropyridin-3-yl)-2-((4-fluorophenyl)amino)pyrimidine-4-carboxamide], the IC50 (GSK3α) is reported as 0.39 nM, the IC50 (pTau) is reported as 68 nM and the IC50 (GSK3β; [1]) is reported as 0.9 nM.
Work on `O=C(Nc1cnc(F)cc1N1CCC(F)(F)CC1)c1ccnc(Nc2ccc(OC(F)F)cc2)n1` [Example 181, 2-((4-(Difluoromethoxy)phenyl)amino)-N-(4-(4,4-difluoropiperidin-1-yl)-6-fluoropyridin-3-yl)pyrimidine-4-carboxamide] yielded an IC50 (GSK3α) of 1.6 nM, an IC50 (pTau) of 77 nM and an IC50 (GSK3β; [1]) of 1.2 nM.
In the case of `Cc1cc(N2CCC(F)(F)CC2)c(NC(=O)c2ccnc(Nc3ccc(Cl)cc3)n2)cn1` [Example 182, 2-((4-Chlorophenyl)amino)-N-(4-(4,4-difluoropiperidin-1-yl)-6-methylpyridin-3-yl)pyrimidine-4-carboxamide], the IC50 (GSK3α) is reported as 1 nM, the IC50 (pTau) is reported as 220 nM and the IC50 (GSK3β; [1]) is reported as 2.5 nM.
`O=C(Nc1cnc(F)cc1N1CCC(F)(F)CC1)c1ccnc(NC2CCOCC2)n1` [Example 184, N-(4-(4,4-Difluoropiperidin-1-yl)-6-fluoropyridin-3-yl)-2-((tetrahydro-2H-pyran-4-yl)amino)pyrimidine-4-carboxamide] showed an IC50 (GSK3α) of 6 nM, an IC50 (pTau) of 400 nM and an IC50 (GSK3β; [1]) of 11 nM.
For `O=C(Nc1cncc(-c2ccccc2F)c1)c1ccnc(Nc2cccc(C(F)(F)F)c2)n1` [Example 185, N-(5-(2-Fluorophenyl)pyridin-3-yl)-2-((3-(trifluoromethyl)phenyl)amino)pyrimidine-4-carboxamide], the IC50 (GSK3α) was 2.3 nM, the IC50 (pTau) was 530 nM and the IC50 (GSK3β; [1]) was 5.9 nM.
With `O=C(Nc1cncc(-c2ccccc2F)c1)c1ccnc(NCC2CC2)n1` [Example 186, 2-((Cyclopropylmethyl)amino)-N-(5-(2-fluorophenyl)pyridin-3-yl)pyrimidine-4-carboxamide] the IC50 (GSK3α) was 9.9 nM, the IC50 (pTau) was 5000 nM and the IC50 (GSK3β; [1]) was 6 nM.
With `O=C(Nc1cncc(-c2ccccc2F)c1)c1ccnc(Nc2cccc(OC(F)(F)F)c2)n1` [Example 187, N-(5-(2-Fluorophenyl)pyridin-3-yl)-2-((3-(trifluoromethoxy)phenyl)amino)pyrimidine-4-carboxamide] the IC50 (GSK3α) was 7.9 nM, the IC50 (pTau) was 2500 nM and the IC50 (GSK3β; [1]) was 13 nM.
`O=C(Nc1cncnc1OCC(F)(F)F)c1ccnc(NCC2CCC2)n1` [Example 188, 2-((Cyclobutylmethyl)amino)-N-(4-(2,2,2-trifluoroethoxy)pyrimidin-5-yl)pyrimidine-4-carboxamide] showed an IC50 (GSK3α) of 1 nM, an IC50 (pTau) of 180 nM and an IC50 (GSK3β) of 0.83 nM.
Compound `CC(C)(C)CNc1nccc(C(=O)Nc2cncnc2OCC(F)(F)F)n1` [Example 189, 2-(Neopentylamino)-N-(4-(2,2,2-trifluoroethoxy)pyrimidin-5-yl)pyrimidine-4-carboxamide] has an IC50 (GSK3α) of 0.8 nM, an IC50 (pTau) of 410 nM and an IC50 (GSK3β; [1]) of 1.43 nM.
`O=C(Nc1cncnc1OCC(F)(F)F)c1ccnc(NCC2CCOCC2)n1` [Example 190, 2-(((Tetrahydro-2H-pyran-4-yl)methyl)amino)-N-(4-(2,2,2-trifluoroethoxy)pyrimidin-5-yl)pyrimidine-4-carboxamide] gave an IC50 (GSK3α) of 2.6 nM, an IC50 (pTau) of 190 nM and an IC50 (GSK3β) of 3.1 nM.
`CC1(CNc2nccc(C(=O)Nc3cncnc3OCC(F)(F)F)n2)COC1` [Example 191, 2-(((3-Methyloxetan-3-yl)methyl)amino)-N-(4-(2,2,2-trifluoroethoxy)pyrimidin-5-yl)pyrimidine-4-carboxamide] showed an IC50 (GSK3α) of 4.3 nM, an IC50 (pTau) of 240 nM and an IC50 (GSK3β) of 3.3 nM.
`O=C(Nc1cncnc1OCC(F)(F)F)c1ccnc(NCC2CC2)n1` [Example 192, 2-((Cyclopropylmethyl)amino)-N-(4-(2,2,2-trifluoroethoxy)pyrimidin-5-yl)pyrimidine-4-carboxamide] showed an IC50 (GSK3α) of 4.8 nM, an IC50 (pTau) of 480 nM and an IC50 (GSK3β; [1]) of 4.8 nM.
